# US20240116985A1, “STAPLED PEPTIDES AND METHODS THEREOF” (priority 2020, published 2024)
# Like-named read-outs stand apart in the source and are kept apart here.
# Columns and labels:
# CHI Log D procedure = type: physicochemical; settings: for chromatographic logD: pH 7.4, CHI Log D
# [1] = molecular target: T1, full-length beta-Catenin (Uniprot ID P35222) (Homo sapiens, UniProt P35222); assay: Fluorescence polarization IC50 (beta-catenin / 5FAM-TCF4 10-53 competition); type: binding
# T1 construct: 10 nM full-length beta-Catenin (Uniprot ID P35222)
# T1 sequence (P35222 1-781): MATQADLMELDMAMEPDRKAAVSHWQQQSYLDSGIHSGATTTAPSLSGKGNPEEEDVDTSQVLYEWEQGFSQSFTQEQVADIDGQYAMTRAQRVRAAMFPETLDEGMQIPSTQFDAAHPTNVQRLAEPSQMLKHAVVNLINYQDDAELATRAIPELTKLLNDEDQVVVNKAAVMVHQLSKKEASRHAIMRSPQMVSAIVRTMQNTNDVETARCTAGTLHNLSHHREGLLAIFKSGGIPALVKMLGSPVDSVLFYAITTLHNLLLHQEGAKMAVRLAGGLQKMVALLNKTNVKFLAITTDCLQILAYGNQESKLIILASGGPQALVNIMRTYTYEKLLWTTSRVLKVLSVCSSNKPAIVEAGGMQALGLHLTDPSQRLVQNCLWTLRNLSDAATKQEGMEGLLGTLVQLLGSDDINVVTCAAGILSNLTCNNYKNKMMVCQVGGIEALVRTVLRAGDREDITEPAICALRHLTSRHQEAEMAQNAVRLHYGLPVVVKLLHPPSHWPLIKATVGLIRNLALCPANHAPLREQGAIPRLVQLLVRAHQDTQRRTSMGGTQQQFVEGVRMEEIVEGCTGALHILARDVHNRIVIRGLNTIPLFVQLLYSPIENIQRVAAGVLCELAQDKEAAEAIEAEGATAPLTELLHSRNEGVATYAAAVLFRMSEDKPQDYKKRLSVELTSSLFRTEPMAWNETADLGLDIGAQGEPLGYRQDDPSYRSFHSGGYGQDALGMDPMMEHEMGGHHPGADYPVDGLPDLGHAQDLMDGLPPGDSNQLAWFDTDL
# [2] = fluorescence polarization, read-out: beta-Catenin FP IC50
# [3] = fluorescence polarization, beta-catenin, read-out: FP EC50
Structure (SMILES),chromatographic logD (CHI Log D procedure),"IC50 [1, 2] [nM]",CHI Log D (CHI Log D procedure; pH 7.4),IC50 ([1]; read-out: FP EC50) [nM],IC50 ([1]; read-out: beta-Catenin FP IC50) [nM],other results
"CC[C@H](C)[C@@H]1NC(=O)[C@H](CC(=O)O)NC(=O)[C@]2(CC=CCCCC3(CCCC=CCCCCCC[C@@](C)(C(=O)N[C@@H](Cc4ccccc4)C(=O)N[C@@H](Cc4csc5ccccc45)C(=O)N[C@@H](CCC(N)=O)C(N)=O)NC(=O)[C@H](CCC(N)=O)NC(=O)[C@H](Cc4ccccc4)NC(=O)[C@H](C)NC(=O)[C@H](C)NC(=O)[C@H](CCC(=O)O)NC(=O)C[C@H](CC(=O)O)NC3=O)NC1=O)CCCN2C(C)=O (stereo partly drawn) [I-675, Ac-PL3-Asp-Ile-B5-RbGlu-Glu-Ala-Ala-Phe-Gln-S8-Phe-BztA-Gln-NH2]",2.13,4520,–,–,–,–
"CC[C@H](C)[C@@H]1NC(=O)[C@H](CC(=O)O)NC(=O)[C@]2(CC=CCCCC3(CCCC=CCCCCCC[C@@](C)(C(=O)N[C@@H](Cc4ccccc4)C(=O)N[C@@H](Cc4csc5ccccc45)C(=O)N[C@@H](CCC(N)=O)C(N)=O)NC(=O)[C@H](CCC(N)=O)NC(=O)[C@H](Cc4ccccc4)NC(=O)[C@H](C)NC(=O)[C@H](C)NC(=O)[C@H](CN(CC(=O)O)CC(F)(F)F)NC(=O)[C@H](CC(=O)O)NC3=O)NC1=O)CCCN2C(C)=O (stereo partly drawn) [I-611, Ac-PL3-Asp-Ile-B5-Asp-TfeGA-Ala-Ala-Phe-Gln-S8-Phe-BztA-Gln-NH2]",–,55,2.595,55,–,logD (CHI Log D procedure; pH 7.4): 2.6; IC50 ([1]; read-out: bCat FP IC50): 55 nM
"CC[C@H](C)[C@@H]1NC(=O)[C@H](CC(=O)O)NC(=O)[C@]2(CC=CCCCC3(CCCC=CCCCCCC[C@@](C)(C(=O)N[C@@H](Cc4ccsc4)C(=O)N[C@@H](Cc4csc5ccccc45)C(=O)N[C@@H](CCC(N)=O)C(N)=O)NC(=O)[C@H](CC(N)=O)NC(=O)[C@H](Cc4ccccc4)NC(=O)[C@H](C)NC(=O)[C@H](C)NC(=O)[C@H](CN(CC(=O)O)CC(F)(F)F)NC(=O)[C@H](CC(=O)O)NC3=O)NC1=O)CCCN2C(C)=O (stereo partly drawn) [I-700, Ac-PL3-Asp-Ile-B5-Asp-TfeGA-Ala-Ala-Phe-Asn-S8-3Thi-BztA-Gln-NH2]",–,49,2.607,49,–,–
"CC[C@@H]1NC(=O)[C@H](CC(=O)O)NC(=O)[C@]2(CC=CCCCC3(CCCC=CCCCCCC[C@@](C)(C(=O)N[C@@H](Cc4ccccc4)C(=O)N[C@@H](Cc4csc5ccccc45)C(=O)N[C@@H](CCC(N)=O)C(N)=O)NC(=O)[C@H](CCC(N)=O)NC(=O)[C@H](Cc4ccccc4)NC(=O)[C@H](C)NC(=O)[C@H](C)NC(=O)[C@H](CCC(=O)O)NC(=O)[C@H](CC(=O)O)NC3=O)NC1=O)CCCN2C(C)=O (stereo partly drawn) [I-568, Ac-PL3-Asp-Abu-B5-Asp-Glu-Ala-Ala-Phe-Gln-S8-Phe-BztA-Gln-NH2]",–,73,2.158,73,–,–
"CC(=O)N1CCC[C@]12CC=CCCCC1(CCCC=CCCCCCC[C@@](C)(C(=O)N[C@@H](Cc3ccccc3)C(=O)N[C@@H](Cc3ccc4ccccc4n3)C(=O)N[C@@H](CCC(N)=O)C(N)=O)NC(=O)[C@H](C(C)C)NC(=O)[C@H](Cc3ccccc3)NC(=O)[C@H](C)NC(=O)[C@H](C)NC(=O)[C@H](CCC(=O)O)NC(=O)[C@H](CC(=O)O)NC1=O)NC(=O)[C@H](C)NC(=O)[C@H](CC(=O)O)NC2=O (stereo partly drawn) [I-143, Ac-PL3-Asp-Ala-B5-Asp-Glu-Ala-Ala-Phe-Val-S8-Phe-Qui-Gln-NH2]",2.07,–,–,–,–,"IC50 ([1]; Table E2-1, read-out: beta-Catenin FP IC50): 2270 nM"
"CCN(CC(=O)O)C[C@@H]1NC(=O)[C@H](CC(=O)O)NC(=O)C2(CCCC=CCCCOC(=O)N3CC[C@@](C(=O)N[C@@H](Cc4ccsc4)C(=O)N[C@@H](Cc4csc5ccccc45)C(=O)N[C@@H](CCC(N)=O)C(N)=O)(C3)NC(=O)[C@H](Cc3ccccc3)NC(=O)[C@H](Cc3ccccc3)NC(=O)[C@H](C)NC(=O)[C@H](C)NC1=O)CCCC=CC[C@]1(CCCN1C(C)=O)C(=O)N[C@@H](CC(=O)O)C(=O)N[C@@H](CC(C)(C)C)C(=O)N2 (stereo partly drawn) [I-970, Ac-PL3-Asp-Npg-B5-Asp-EtGA-Ala-Ala-Phe-Phe-PyrS2-3Thi-BztA-Gln-NH2]",–,–,1.853,–,1360,"IC50 [1, 3]: 1360 nM"
"CC(=O)N1CCC[C@]12CC=CCCCC1(CCCC=CCCCOC(=O)N3CC[C@@](C(=O)N[C@@H](Cc4ccccc4Cl)C(=O)N[C@@H](Cc4csc5ccccc45)C(=O)N[C@@H](CO)C(N)=O)(C3)NC(=O)[C@H](CC(C)C)NC(=O)[C@H](Cc3ccccc3)NC(=O)[C@H](C)NC(=O)[C@H](C)NC(=O)[C@H](CCC(=O)O)NC(=O)[C@H](CC(=O)O)NC1=O)NC(=O)[C@H](CC(C)(C)C)NC(=O)[C@H](CC(=O)O)NC2=O (stereo partly drawn) [I-1067, Ac-PL3-Asp-Npg-B5-Asp-Glu-Ala-Ala-Phe-Leu-PyrS2-2C1F-BztA-Ser-NH2]",–,–,2.147,–,517,"IC50 [1, 3]: 517 nM"
"CC(=O)N1CCC[C@]12CC=CCCCC1(CCCC=CCCCOC(=O)N3CC[C@@](C(=O)N[C@@H](Cc4ccsc4)C(=O)N[C@@H](Cc4csc5ccccc45)C(=O)N[C@@H](CCC(N)=O)C(N)=O)(C3)NC(=O)[C@H](CO)NC(=O)[C@H](Cc3ccccc3)NC(=O)[C@H](C)NC(=O)[C@H](C)NC(=O)[C@H](Cc3cccc(C(=O)O)c3)NC(=O)[C@H](CC(=O)O)NC1=O)NC(=O)[C@H](CC(C)(C)C)NC(=O)[C@H](CC(=O)O)NC2=O (stereo partly drawn) [I-978, Ac-PL3-Asp-Npg-B5-Asp-3COOHF-Ala-Ala-Phe-Ser-PyrS2-3Thi-BztA-Gln-NH2]",–,–,1.745,–,112,"IC50 [1, 3]: 112 nM"
"CC(=O)N1CCC[C@]12CC=CCCCC1(CCCC=CCCCCCC[C@@](C)(C(=O)N[C@@H](Cc3ccccc3C(F)(F)F)C(=O)N[C@@H](Cc3csc4ccccc34)C(=O)N[C@@H](CCC(N)=O)C(N)=O)NC(=O)[C@H](CC(N)=O)NC(=O)[C@H](Cc3ccccc3)NC(=O)[C@H](C)NC(=O)[C@H](C)NC(=O)[C@H](CN(CC(=O)O)CC(F)(F)F)NC(=O)[C@H](CC(=O)O)NC1=O)NC(=O)[C@H](CC(C)(C)C)NC(=O)[C@H](CC(=O)O)NC2=O (stereo partly drawn) [I-934, Ac-PL3-Asp-Npg-B5-Asp-TfeGA-Ala-Ala-Phe-Asn-S8-2F3MeF-BztA-Gln-NH2]",2.82,–,–,–,69,–
"CC(=O)N1CCC[C@]12CC=CCCCC1(CCCC=CCCCCCC[C@@](C)(C(=O)N[C@@H](Cc3cccc(F)c3)C(=O)N[C@@H](Cc3csc4ccccc34)C(=O)N[C@@H](CCC(N)=O)C(N)=O)NC(=O)[C@H](C(C)C)NC(=O)[C@H](Cc3ccccc3)NC(=O)[C@H](C)NC(=O)[C@H](C)NC(=O)[C@H](Cc3cn(C)cn3)NC(=O)[C@H](CC(=O)O)NC1=O)NC(=O)[C@H](C)NC(=O)[C@H](CC(=O)O)NC2=O (stereo partly drawn) [I-403, Ac-PL3-Asp-Ala-B5-Asp-1meH-Ala-Ala-Phe-Val-S8-3FF-BztA-Gln-NH2]",2.87,2130,–,–,–,–
"CC[C@H](C)[C@@H]1NC(=O)[C@H](CC(=O)O)NC(=O)[C@]2(CC=CCCCC3(CCCC=CCCCCCC[C@@](C)(C(=O)N[C@@H](Cc4ccccc4)C(=O)N[C@@H](Cc4csc5ccccc45)C(=O)N[C@@H](CCC(N)=O)C(N)=O)NC(=O)[C@H](CCC(N)=O)NC(=O)[C@H](Cc4ccccc4)NC(=O)[C@H](C)NC(=O)[C@H](C)NC(=O)[C@H](CCC(=O)O)NC(=O)C[C@@H](C(=O)O)NC3=O)NC1=O)CCCN2C(C)=O (stereo partly drawn) [I-673, Ac-PL3-Asp-Ile-B5-isoAsp-Glu-Ala-Ala-Phe-Gln-S8-Phe-BztA-Gln-NH2]",1.87,5000,–,–,–,–
"CC[C@H](C)[C@@H]1NC(=O)[C@H](CC(=O)O)NC(=O)[C@]2(CC=CCCCC3(CCCC=CCCCCCC[C@@](C)(C(=O)N[C@@H](Cc4ccccc4)C(=O)N[C@@H](Cc4csc5ccccc45)C(=O)N[C@@H](CCC(N)=O)C(=O)N[C@@H](CCCCNC(=O)CN=[N+]=[N-])C(N)=O)NC(=O)[C@H](CCC(N)=O)NC(=O)[C@H](Cc4ccccc4)NC(=O)[C@H](C)NC(=O)[C@H](C)NC(=O)[C@H](CCC(=O)O)NC(=O)[C@H](CC(=O)O)NC3=O)NC1=O)CCCN2C(C)=O (stereo partly drawn) [I-597, Ac-PL3-Asp-Ile-B5-Asp-Glu-Ala-Ala-Phe-Gln-S8-Phe-BztA-Gln-[AzAc]Lys-NH2]",–,–,2.39,76,–,–
"CC(=O)N1CCC[C@]12CC=CCCCC1(CCCC=CCCCCCC[C@@](C)(C(=O)N[C@@H](Cc3ccccc3Cl)C(=O)N[C@@H](Cc3csc4ccccc34)C(=O)N[C@@H](CCC(N)=O)C(N)=O)NC(=O)[C@H](Cc3ccccc3)NC(=O)[C@H](Cc3ccccc3)NC(=O)[C@H](C)NC(=O)[C@H](C)NC(=O)[C@H](CN(CC(=O)O)CC(F)(F)F)NC(=O)[C@H](CC(=O)O)NC1=O)NC(=O)[C@H](CC(C)(C)C)NC(=O)[C@H](CC(=O)O)NC2=O (stereo partly drawn) [I-931, Ac-PL3-Asp-Npg-B5-Asp-TfeGA-Ala-Ala-Phe-Phe-S8-2C1F-BztA-Gln-NH2]",3.36,–,–,–,221,–
